Measurements published in patent publication US7094801B2, “Chalcone derivatives and their use to treat diseases” (Atherogenics, Inc., priority 2001, dated 2006).
Where a name gives a salt, the structure may show the parent alone.

Test system: VCAM-1
Assay: In Vitro VCAM-1 Assay (TNF-α stimulated HAEC or HPAEC, cell ELISA)
Assay type: cell-based, human
Conditions: Homo sapiens, 16 h, TNF-α (1 ng/ml) stimulated HAEC or HPAEC, approximately 16 hours
Description: Cell Culture and compound dosing: Cultured primary human aortic (HAEC) or pulmonary (HPAEC) endothelial cells were obtained from Clonetics, Inc., and were used below passage 9. Cells were seeded in 96 well plates such that they would reach 90–95% confluency by the following day. On the following day the cells were stimulated with TNF-α (1 ng/ml) in the presence or absence of compounds dissolved in DMSO such that the final concentration of DMSO is 0.25% or less. To establish a dose curve for each compound, four concentrations in 2- to 5-fold increments were used. Cells were exposed to TNF-α and compounds for approximately 16 hours. The next day the cells were examined under microscope to score for visual signs of toxicity or cell stress.
Following 16 hr exposure to TNF-α and compound the media was discarded and the cells were washed once with Hanks Balanced Salt Solution (HBSS)/Phosphate buffered saline (PBS) (1:1). Primary antibodies against VCAM-1 (0.25 μg/ml in HBSS/PBS+5% FBS) were added and incubated for 30–60 minutes at 37° C. Cells were washed with HBSS/PBS three times, and secondary antibody Horse Radish Peroxidase (HRP)-conjugated goat anti-mouse IgG (1:500 in HBSS/PBS+5% FBS) were added and incubated for 30 minutes at 37° C. Cells were washed with HBSS/PBS four time and TMB substrate were added and incubated at room temperature in the dark until there was adequate development of blue color. The length of time of incubation was typically 5–15 minutes. 2N sulfuric acid was added to stop the color development and the data was collected by reading the absorbance on a BioRad ELISA plate reader at OD 450 nm. The results are expressed as IC50 values (the concentration (micromolar) of compound required to inhibit 50% of the maximal response of the control sample stimulated by TNF-α only).

| Compound | IC50 |
| --- | --- |
| COc1cc(OC)c(-c2cc3ccccc3s2)cc1/C=C/C(=O)c1ccc(SCC(=O)O)cc1 [Example 23, {4-[3E-(5-Benzo[b]thiophen-2-yl-2,4-dimethoxy-phenyl)-acryloyl]-phenylthio}-acetic acid] | < 1 µM |
| O=C(/C=C/c1ccc(-c2cccs2)cc1)c1ccc(SC(F)(F)C(=O)O)cc1 [Example 25, Difluoro-{4-[3E-(4-thiophen-2-yl-phenyl)-acryloyl]-phenylthio}-acetic acid, sodium salt] | > 10 µM |
| COc1cc(/C=C/C(=O)c2ccc3c(ccn3C)c2)cc(-c2cccs2)c1OC [Example 28, 3E-(3,4-Dimethoxy-5-thiophen-2-yl-phenyl)-1-(1-methyl-1H-indol-5-yl)-propenone] | < 5 µM |
| COC(=O)c1ccc(-c2cc(/C=C/C(=O)c3ccc(C(=O)O)cc3)c(OC)cc2OC)s1 [Example 51, 5-{5-[3-(4-Carboxy-phenyl)-3-oxo-E-propenyl]-2,4-dimethoxy-phenyl}-thiophene-2-carboxylic acid methyl ester] | < 5 µM |
| COc1cc(OC)c(-c2ccc(C(=O)O)s2)cc1/C=C/C(=O)c1ccc(C(=O)O)cc1 [Example 52, 5-{5-[3-(4-Carboxy-phenyl)-3-oxo-E-propenyl]-2,4-dimethoxy-phenyl}-thiophene-2-carboxylic acid] | > 10 µM |
| O=C(O)c1ccc(C(=O)/C=C/c2cc(-c3cccs3)ccc2N2CCCC2)cc1 [Example 63, 4-[3E-(2-Pyrrolidin-1-yl-5-thiophen-2-yl-phenyl)-acryloyl]-benzoic acid] | < 10 µM |
| COc1cc(OC)c(-c2cccs2)cc1/C=C/C(=O)c1ccc(C(C)(C)C(=O)O)cc1 [Example 77, 2-{4-[3E-(2,4-Dimethoxy-5-thiophen-2-yl-phenyl)-acryloyl]-phenyl}-2-methyl-propionic acid] | < 5 µM |
| COc1cc(OC)c(-c2cc3ccccc3s2)cc1/C=C\C(=O)c1ccc(C(=O)O)cc1 [Example 79, 4-[3Z-(5-Benzo[b]thien-2-yl-2,4-dimethoxyphenyl)-acryloyl]-benzoic acid] | < 1 µM |
| COc1cc(OC)c(-c2cc3ccccc3s2)cc1/C=C/C(=O)c1ccc(S(N)(=O)=O)cc1 [Example 80, 4-[3E-(5-Benzo[b]thiophen-2-yl-2,4-dimethoxy-phenyl)-acryloyl]-benzenesulfonamide] | < 5 µM |
| COc1cc(OC)c(-c2cc3ccccc3s2)cc1/C=C/C(=O)c1ccc(C(=O)NCCN2CCOCC2)cc1 [Example 90, 4-[3E-(5-Benzo[b]thiophen-2-yl-2,4-dimethoxy-phenyl)-acryloyl]-N-(2-morpholin-4-yl-ethyl)-benzamide] | < 1 µM |
| COc1cc(/C=C/C(=O)c2ccc(N(C)S(C)(=O)=O)cc2)cc(-c2cccs2)c1OC [Example 98, N-{4-[3E-(3,4-Dimethoxy-5-thiophen-2-yl-phenyl)-acryloyl]-phenyl}-N-methyl-methanesulfonamide] | < 5 µM |
| COc1cc(OC)c(-c2cc3ccccc3s2)cc1/C=C/C(=O)c1ccc(NC2OC(CO)C(O)C(O)C2O)cc1 [Example 99, 3E-(5-Benzo[b]thiophen-2-yl-2,4-dimethoxy-phenyl)-1-[4-(D-glucopyranosylamino)-phenyl]-propenone] | > 10 µM |

Test system: not given
Assay: not given
Conditions: not given

| Compound | melting point |
| --- | --- |
| COc1cc(OCCN2CCOCC2)c(/C=C/C(=O)c2ccc(S(N)(=O)=O)cc2)cc1-c1cccs1.Cl | 235 °C (dec.) |
| COc1cc(OC)c(-c2cc3ccccc3s2)cc1/C=C/C(=O)c1ccc(C(=O)O)cc1 (as salt: salt) [Example 120, 4-[3E-(5-Benzo[b]thien-2-yl-2,4-dimethoxyphenyl)-acryloyl]-benzoic acid, N-methyl-D-glucamine salt] | 75 to 80 °C |
| O=C([O-])c1ccc(/C=C/C(=O)c2ccc(-c3cccs3)cc2)cc1.[Na+] [Example 17, 4-[3-{4-(thien-2-yl)-phenyl}-3-oxo-E-propenyl]-benzoic acid, sodium salt] | > 260 °C |
| COc1cc(OC)c(-c2cc3ccccc3s2)cc1/C=C/C(=O)c1ccc(C(=O)[O-])cc1.[Na+] [Example 56, 4-[3E-(5-Benzo[b]thiophen-2-yl-2,4-dimethoxy-phenyl)-acryloyl]-benzoic acid, sodium salt] | > 235 °C |
| COc1cc(OC(C)(C)C(=O)O)c(/C=C/C(=O)c2ccc(C(=O)O)cc2)cc1-c1cccs1 [Example 59, 4-{3E-[2-(1-Carboxy-1-methyl-ethoxy)-4-methoxy-5-thiophen-2-yl-phenyl]-acryloyl}-benzoic acid] | 223 to 225 °C |
| COc1cc(OCC(N)=O)c(/C=C/C(=O)c2ccc(C(=O)O)cc2)cc1-c1cccs1 [Example 71, 4-[3E-(2-Carbamoylmethoxy-4-methoxy-5-thiophen-2-yl-phenyl)-acryloyl]-benzoic acid] | 235 °C (dec.) |
| COc1cc(OCC(=O)N2CCOCC2)c(/C=C/C(=O)c2ccc(C(=O)O)cc2)cc1-c1cccs1 [Example 72, 4-{3E-[4-Methoxy-2-(2-morpholin-4-yl-2-oxo-ethoxy)-5-thiophen-2-yl-phenyl]-acryloyl}-benzoic acid] | 231 to 233 °C |
| COc1cc(OCCC2CCCN2C)c(/C=C/C(=O)c2ccc(C(=O)O)cc2)cc1-c1cccs1.Cl (centres unmarked) [Example 73, 4-(3E-{4-Methoxy-2-[2-(1-methyl-pyrrolidin-2-yl)-ethoxy]-5-thiophen-2-yl-phenyl}-acryloyl)-benzoic acid, hydrochloride] | 206 to 208 °C |
| COc1cc(OC(C)(C)C(=O)O)c(/C=C/C(=O)c2ccc(S(N)(=O)=O)cc2)cc1-c1cccs1 [Example 82, 2-{5-Methoxy-2-[3-oxo-3-(4-aminosulfonyl-phenyl)-E-propenyl]-4-thiophen-2-yl-phenoxy}-2-methyl-propionic acid] | 164 to 165 °C |
| COc1cc(OCc2nnn[nH]2)c(/C=C/C(=O)c2ccc(S(N)(=O)=O)cc2)cc1-c1cccs1 [Example 89, 4-{3E-[4-Methoxy-2-(1H-tetrazol-5-ylmethoxy)-5-thiophen-2-yl-phenyl]-acryloyl}-benzenesulfonamide] | 163 to 164 °C (dec.) |
| O=C(O)CNC(=O)Nc1ccc(C(=O)/C=C/c2ccc(-c3cccs3)cc2)cc1 [Example 97, 4(3E-{4-[3-(4-Thiophen-2-yl-phenyl)-acryloyl]-phenyl}-ureido)-acetic acid] | 222 to 225 °C |
| COc1cc(OC)c(-c2cccnc2)cc1/C=C/C(=O)c1ccc(S(N)(=O)=O)cc1 [Example 104, 4-[3E-(2,4-Dimethoxy-5-pyridin-3-yl-phenyl)-acryloyl]-benzenesulfonamide] | 253 to 255 °C |
| COc1cc(OC)c(-c2c[nH]c(C3CC3)n2)cc1/C=C/C(=O)c1ccc(C(=O)O)cc1.Cl [Example 105, 4-{3E-[5-(2-Cyclopropyl-1H-imidazol-4-yl)-2,4-dimethoxy-phenyl]-acryloyl}-benzoic acid, hydrochloride] | > 240 °C |
| COc1cc(OC)c(-c2cc3ccccc3s2)cc1/C=C/C(=O)c1ccc(S(=O)(=O)c2ccccc2)cc1 [Example 107, 1-(4-Benzenesulfonyl-phenyl)-3E-(5-benzo[b]thiophen-2-yl-2,4-dimethoxy-phenyl)-propenone] | 127 to 128 °C |
| COc1cc(OC)c(-c2nncn2CC(C)C)cc1/C=C/C(=O)c1ccc(S(N)(=O)=O)cc1 [Example 109, 4-{3E-[5-(4-Isobutyl-4H-[1,2,4]triazol-3-yl)-2,4-dimethoxy-phenyl]-acryloyl}-benzenesulfonamide] | > 240 °C |
| COc1cc(OC)c(-c2nc3cccnc3[nH]2)cc1/C=C/C(=O)c1ccc(S(N)(=O)=O)cc1 [Example 112, 4-{3E-[5-(3H-Imidazo[4,5-b]pyridin-2-yl)-2,4-dimethoxy-phenyl]-acryloyl}-benzenesulfonamide] | > 260 °C |
| COc1cc(OC)c(-c2cc3ccccc3n2C)cc1/C=C/C(=O)c1ccc(C(=O)O)cc1 [Example 116, 4-{3E-[2,4-Dimethoxy-5-(1-methyl-1H-indol-2-yl)-phenyl]-acryloyl}-benzoic acid] | 157 to 160 °C |
| NS(=O)(=O)c1ccc(C(=O)/C=C/c2cccc(C3CC=CO3)c2)cc1 (centres unmarked) [Example 119, 4-{3-[3E-(2,3-Dihydro-furan-2-yl)-phenyl]-acryloyl}-benzenesulfonamide] | 152 to 153 °C |
| COc1cc(OC)c(C2C=CCO2)cc1/C=C/C(=O)c1ccc(S(N)(=O)=O)cc1 (centres unmarked) [Example 121, 4-{3E-[5-(2,5-Dihydro-furan-2-yl)-2,4-dimethoxy-phenyl]-acryloyl}-benzenesulfonamide] | 194 to 195 °C |
| COc1cc(Oc2cccc(C)n2)c(/C=C/C(=O)c2ccc(S(N)(=O)=O)cc2)cc1-c1cccs1 [Example 122, 4-{3E-[4-Methoxy-2-(6-methyl-pyridin-2-yloxy)-5-thiophen-2-yl-phenyl]-acryloyl}-benzenesulfonamide] | 164 to 165 °C |
